Read-outs that look alike come from different tables or passages of the source. Values belong to the molecule of their own block, whether it stands above or below them.
Tests used:
NLK = target: T1, NLK (Homo sapiens, UniProt Q9UBE8); assay: Kinase assay of NLK immunopurified from treated differentiating human progenitors; assay type: cell-based; parameters: 5000 cells per treatment were lysed and immunopurified NLK was subjected to in vitro kinase assay; endogenous in cells; host or cells: human cord blood CD34+ HSPCs transduced with shLuc / shRPS19 / shRPL11, differentiating in erythroid medium; details: for reduction in kinase activity of NLK immuno-precipitated from treated cultures: RPS19-insufficient human progenitors
T1 sequence (Q9UBE8 1-527): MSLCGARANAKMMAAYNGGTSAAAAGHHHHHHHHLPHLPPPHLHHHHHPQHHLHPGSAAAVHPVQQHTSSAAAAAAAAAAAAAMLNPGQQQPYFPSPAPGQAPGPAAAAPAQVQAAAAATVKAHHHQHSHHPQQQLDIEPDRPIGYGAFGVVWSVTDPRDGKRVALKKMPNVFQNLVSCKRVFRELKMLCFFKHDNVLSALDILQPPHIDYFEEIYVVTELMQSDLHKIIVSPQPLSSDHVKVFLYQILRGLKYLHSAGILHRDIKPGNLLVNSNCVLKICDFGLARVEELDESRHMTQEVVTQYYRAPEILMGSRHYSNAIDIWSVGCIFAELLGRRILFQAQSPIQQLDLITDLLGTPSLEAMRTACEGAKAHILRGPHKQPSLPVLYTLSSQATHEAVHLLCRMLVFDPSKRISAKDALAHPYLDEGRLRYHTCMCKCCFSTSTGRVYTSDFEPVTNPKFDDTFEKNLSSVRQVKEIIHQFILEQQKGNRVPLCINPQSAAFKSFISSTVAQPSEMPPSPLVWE
Experimental: FIG. 7. SD208 increases erythroid expansion in human model of DBA through inhibition of NLK and not TGFβ. (a) Differentiating cord blood CD34+ progenitors were transduced with shRNA against luciferase or RPS19 and treated with inhibitors at working concentrations for TGFβ inhibition every three days. Cells were counted and CD235+ erythroid cells were assessed by flow cytometry after 15 days. (b) Prior to flow cytometry, 5000 cells per group were taken from differentiating cultures for NLK kinase assay. (c) CD34+ progenitors were transduced with shRNA against luciferase or RPS19 and non-targeting or siRNA against NLK. After sorting, samples were split into two groups and either treated with vehicle or SD208 every three days. After 15 days cells were counted and subject to flow cytometry to compare the expansion of maturing CD235+ erythroid (left panel) and CD11b+ myeloid cells (right panel). (d) Cord Blood CD34+ progenitors were transduced with shRNA against luciferase (left panel) or RPS19 (right panel) differentiated in erythroid media for 15 days alone, or in the presence of SB525334 or SD208 at 5 μM. Cells were counted and CD235+ erythroid (D—upper) and CD11b+ myeloid cell (D—lower) percentages were determined by flow cytometry. The number of erythroid or myeloid cells is expressed as a percentage of the number of that lineage with no cytokine or drug treatment.
FIG. 8. NLK inhibition increases expansion of erythroid progenitors from human and murine models of DBA. Human cord blood CD34+ progenitors were transduced with lentivirus co-expressing GFP with shRNA against luciferase (shLuc), RPS19 (shRPS19) or RPL11 (shRPL11). After 36 hours cells GFP+ cells were differentiated in erythroid media in the presence or absence of 5 μM SD208 for 15 days. Cells were counted and assessed for cell surface expression of CD235. (a) The percentage of CD235+ cells was multiplied by the cell count and values were compared as a percentage of untreated controls. (b) Normalizing values relative to untreated RPS19-insufficiency progenitors facilitates direct comparison of erythropoiesis between untreated and SD208-treated cultures. (c) Approximately 3000 cells were removed from differentiating treatments at day 6 and NLK activity was assessed. Values were normalized to reflect a fold induction relative to untreated controls. (d) Lin-Kit+ hematopoietic progenitors were obtained from three mouse embryos expressing tetracycline-inducible shRNA against RPS19 at day E14.5 or three untreated mice, and thee mature RPL11^+/+ or three mature RPL11^+/lox mice treated with tamoxifen for eight weeks. Cells were grown in the presence or absence of doxycycline and/or SD208 for eight days prior to counting and assessing for ter119 surface expression. Values were expressed as a percentage relative to untreated controls (e) and directly comparing the effect of SD208 on erythropoiesis in ribosomal-insufficiency by expressing values relative to untreated ribosome-insufficient cultures (f). At day 5 approximately 3000 cells were assayed for NLK kinase assay (g). CD34+ HSPCs were isolated from three healthy control and three DBA patient mononuclear bone marrow aspirates by magnetic bead sorting and differentiated in the presence or absence of SD208 for 14 days. After counting the total cell population, the ratio of CD235+ erythroblasts was determined by flow cytometry and number of CD235+ erythroblasts calculated. This was expressed as a percentage of the average number of erythroid cells present in untreated healthy controls. (h) The direct effect of SD208 on erythroid expansion in DBA patient samples was calculated following normalization of untreated DBA patient samples as 1-fold, (i) At day five, 3000 cells from each of the differentiating cultures was analyzed for NLK activity by kinase assay and are expressed as a fold induction relative to untreated healthy controls. […]

[1] = system: c-Kit+ erythroid progenitors in murine RPS19-insufficiency; assay: c-Kit+ erythroid expansion screen, tet-shRPS19 murine fetal liver cells (Cell titer-Glo); assay type: cell-based, mouse; details: for rescue of c-Kit+ erythroid expansion: 10 μM, murine RPS19-insufficient model; for EC50: read-out: EC50 of rescue of erythroid growth in murine RPS19-insufficiency
miR-208 = assay: miRNA expression in vehicle-, metformin- and ginsenoside Rb1-treated HSPCs; assay type: cell-based, human
From the text: The abundance of let-7, miR-30 miR-144 and miR-132 were expressed 40.1-, 2.2-, 5.0- and 18.3-fold higher than miR-208, whereas miR-208 was expressed 1.6- and 2.1-fold higher than miR-199 and miR-499. MiR-26a (induced by metformin) expression was 1.4-fold higher than miR-208.

[2] = RPS19-insufficient progenitors, 50 mM metformin, 5 days

SMILES: Fc1ccc(Cl)cc1-c1nc(Nc2ccncc2)c2nccnc2n1 [SD208]
- NLK activity, NLK phosphorylation, fold of untreated controls (NLK; RPL11-insufficiency with SD208 5 μM, 3.0-fold without): 1.2 fold
- NLK activity, Myb phosphorylation, fold of untreated controls (NLK; RPL11-insufficiency with SD208 5 μM, 4.6-fold without): 1.38 fold
- NLK activity, raptor phosphorylation, fold of untreated controls (NLK; RPL11-insufficiency with SD208 5 μM, 7.3-fold without): 1.6 fold
- NLK activity, NLK phosphorylation, fold of untreated controls (NLK; RPS19-insufficiency with SD208 5 μM, 3.5-fold without): 1.2 fold
- NLK activity, Myb phosphorylation, fold of untreated controls (NLK; RPS19-insufficiency with SD208 5 μM, 5.2-fold without): 1.5 fold
- NLK activity, raptor phosphorylation, fold of untreated controls (NLK; RPS19-insufficiency with SD208 5 μM, 8.4-fold without): 1.7 fold
- reduction in kinase activity of NLK immuno-precipitated from treated cultures (NLK): 92.5%
- rescue of c-Kit+ erythroid expansion [1]: significantly rescued
- EC50 [1]: 700 nM

SMILES: CC(C)=CCC[C@](C)(O[C@@H]1O[C@H](CO[C@@H]2O[C@H](CO)[C@@H](O)[C@H](O)[C@H]2O)[C@@H](O)[C@H](O)[C@H]1O)[C@H]1CC[C@]2(C)[C@@H]1[C@H](O)C[C@@H]1[C@@]3(C)CC[C@H](O[C@@H]4O[C@H](CO)[C@@H](O)[C@H](O)[C@H]4O[C@@H]4O[C@H](CO)[C@@H](O)[C@H](O)[C@H]4O)C(C)(C)[C@@H]3CC[C@]12C [ginsenoside Rb1]
- induction of miR-208 (miR-208; ginsenoside Rb1-treated HSPCs): 1.9 fold

Second part, led by results:

- reduction in kinase activity of NLK immuno-precipitated from treated cultures (NLK): 61.2%
SMILES: Cc1cccc(-c2nn3c(c2-c2ccnc4ccc(C(N)=O)cc24)CCC3)n1 [Galunisertib]

- reduction in kinase activity of NLK immuno-precipitated from treated cultures (NLK): 73.6%
SMILES: NC(=O)c1ccc(-c2nc(-c3ccc4c(c3)OCO4)c(-c3ccccn3)[nH]2)cc1 [SB431542]
- rescue of c-Kit+ erythroid expansion [1]: significantly rescued
- EC50 ([1]; Mus musculus): 5000 nM

- reduction of phosphorylation of NLK (NLK; [2]): 48.5%
- reduction of phosphorylation of c-Myb (NLK; [2]): 39.8%
- reduction of phosphorylation of raptor (NLK; [2]): 40.2%
SMILES: CN(C)C(=N)N=C(N)N [metformin]
- induction of miR-499, miR-208, miR-132 (miR-208; metformin-treated HSPCs): None of these miRNAs were induced

— patent US12403132B2, “Methods of treating bone marrow failure syndromes and compositions for use in the same” (The Board of Trustees of the Leland Stanford Junior …, priority 2020, dated 2025)
